Source: patent EP4574175A1, “PRODRUG FOR ANTI-AGING RELATED DISEASES AND USE METHOD THEREFOR” (BEIJING SUNCELL BIO-MEDICAL CO., LTD., priority 2022, dated 2024)

What was measured:
platelets = assay: In vivo platelet toxicity test; parameters: species or system C57 mice; details: multiple rounds i.p.
Description: (§1) All drugs were mixed in 85% physiological saline, 5% DMSO (Sigma, D8418) and 10% Solutol HS 15 (Sigma, 42966), and administered to mice by intraperitoneal (i.p.) injection. To treat the bleomycin-injured young mice, A13 (2 mg/kg), A13bGa1 (5 mg/kg), or an empty vehicle control was administered three consecutive days per week for four weeks. A1331852 (abbreviated as A13) was purchased from MCE.
(§2) A single administration of A13 or A13bG was performed. Female 5-6 week old C57 mice were treated with a single intraperitoneal injection. A13 and A13bG were administered in three different dose groups of 2, 5, and 20 mg/kg. Approximately 50 µl of blood was collected from each mouse at different time points into the EDTA tubes (RAM Scientific) by means of inner canthal blood extraction, and analyzed using a haematology analyzer for a blood routine examination and a platelet counting. Multiple administrations of A13 or A13bG were performed. Female 5-6 week old C57 mice were treated with multiple intraperitoneal injections. A13 and A13bG were administered in three different dose groups of 2, 5 and 20 mg/kg, three consecutive days per week, followed by a 4-day withdrawal for 3 weeks. The time points of administration were in the afternoon of days 0, 1, 2, 7, 8, 9, 14, 15, and 16, and the time points of blood collection and testing were in the morning of days 1, 3, 5, 8, 10, 12, 15, 17, and 19, respectively.
For a blood routine examination, 50 µl of fresh blood was collected from each mouse and immediately mixed with EDTA. Blood samples were analyzed by Celltac Alpha MEK-6400 series haematology analyzer (Nihon Kohden, MEK-6400). Data were expressed as the number of different blood cells or platelets per µl of blood. For the serum biochemical analysis, the blood samples were collected, coagulated for 2 hours at room temperature or overnight at 4°C, and then centrifuged (1000 g, 10 minutes) to obtain serum. A 200 µl of serum was aliquoted and analyzed for alanine aminotransferase (ALT), aspartate aminotransferase (AST), uric acid (UA), and creatinine (CREA) by a chemistry analyzer (Mindray, BS-350E).

[1] = test system: mouse model of Bleomycin-induced pulmonary fibrosis; assay: Bleomycin-induced pulmonary fibrosis mouse model; format: in vivo, C57 mice; details: A13 2 mg/kg
Description: as §1
Bleomycin was purchased from Selleck. […]. Drug treatment was initiated four days after modelling, and the drug was administered three consecutive days per week for four consecutive weeks, after which the mice were executed for material collection.
All animals (including those found dead, dying, and euthanised) were autopsied, and the lung tissues were preserved. The lungs were separated, the fat and other tissues were removed, the surface fluid was absorbed using a filter paper, and the whole lungs were weighed (those found dead, dying, and euthanised) for calculation of the lung weight index. The right lung and bronchiole were fixed in 10% neutral buffered formalin solution, embedded in paraffin, sectioned, prepared into slices, and stained with HE for a histopathological and morphological observation of the lung. The degree of the lesions such as the inflammatory cell infiltration in the lung tissue were graded according to a 4-grade classification (slight, mild, moderate, severe) using a standard terminology for diagnosis and classification. The left lung tissue was clipped and stored temporarily below -60°C. Lung weight index(%) = lung weight/body weight × 100%. [formula]
Masson trichrome stain kit (Solarbio, G1340) was used to detect fibrosis in the lung tissue. The formalin-fixed, and paraffin-embedded lung sections were dewaxed with xylene, and then rehydrated with 100% alcohol, 95% alcohol and distilled water. The sections were then stained according to the manufacturer's instructions. Afterwards, the sections were rapidly dehydrated with 95% alcohol and 100% alcohol, cleaned with xylene and covered with the coverslips. […]

[2] = test system: induced senescent A549 cell; assay: In vitro compound screening, cell viability test (CCK-8); format: cell-based, human; details: for killing activity on the senescent cells compared with ABT-263: A549-CDDP, Figure 1B; for senescent cell killing activity and selectivity in vitro (screening): induced senescent A549 cell model, Figure 1A
[3] = Daily observation of mice during multiple administration; format: in vivo, C57 mice; details: after 3 consecutive rounds of administration
Description: as §2

[4] = test system: induced senescent HEF cell; assay: In vitro compound screening, cell viability test (CCK-8); format: cell-based, human; details: HEF-ETO, Figure 1C
Description: Briefly, the human embryonic skin tissues and the fetal lung tissues obtained from the aborted tissues with the patient's informed consent were minced with the forcep and incubated in 1 mg/ml collagenase IV at 37°C for 1-2 hours. After the enzyme treatment, the cells were collected by centrifugation and resuspended in HEF medium (Dulbecco's modified Eagle medium (DMEM, Gibco) containing 10% fetal bovine serum (FBS, Ausbian), 1% GlutaMAX (Gibco), 1% non-essential amino acids (NEAA, Gibco) and 1% penicillin/streptomycin (Gibco). Gibco). Cells were plated on the 10 cm tissue culture dishes and grown in 10% FBS DMEM. […] They were passaged and cryopreserved according to Lonza's method. A549 cells, BJ cells and MRC5 cells were purchased from ATCC and cultured in DMEM medium containing 10% fetal bovine serum (FBS, Ausbian), and 1% penicillin/streptomycin (Gibco).
Cell Counting Kit-8 (CCK-8) assay was used to assess the cell viability. The senescent and non-senescent cells or chondrocytes were seeded into the 96-well plates and cultured overnight. The cells were then treated with control (0.05% DMSO) or different concentrations of the drug to be tested. […] Absorbance was measured at the wavelength of 450 nm.

senescent HEF cells = assay: Cell killing activity assay (CCK-8), Example 7; format: cell-based, human; details: HEF-induced senescence cell model, up to 25 µM, three days
Description: (§3) Preparation of the cell plates: The non-senescent, and the induced senescent HEF cells and A549 cells were taken respectively, digested with trypsin, and centrifuged at 1000 rmp for 5 minutes. The supernatants were removed, and the cells were resuspended in fresh DMEM medium containing 10% foetal bovine serum for counting. The cell density was adjusted so that the density of the non-senescent cells was at 4000 cells/100 µL and the density of the senescent cells was at 7000 cells/100 µL. The cell suspension was added to the 96-well transparent cell culture plates at 100 µL per well. Note that the edge wells of the 96-well plate were not used for the test wells, and 300 µL PBS is added separately to reduce the medium evaporation. The cell-spread 96-well plates were put back into the incubator at 37°C for the overnight incubation until the cells adhered to the wall.
(§4) Formulation of the drug concentration gradients: After the cells adhered to the wall on the second day, the small molecule compounds (d-12, d-11, and d-4) to be tested for activity are ready to be added. […] 3 parallel replicate wells were set up for each test drug concentration. The 96-well plate was put back into the incubator at 37°C, and the cell survival was tested after three days.
(§5) Detection of the cell survival after the drug treatment using the CCK-8 method: Three days after the addition of the drug, the well plate was removed, the supernatant was discarded, and 100 µL of the pre-prepared CCK-8 working solution was added to each well. The CCK-8 working solution was obtained by diluting the CCK8 stock solution (C0041, Beyotime) with the serum-free DMEM medium in 10-fold volume. The 96-well plate added with the CCK-8 working solution was put back to the incubator at 37°C and incubated for 0.5-2 hours. The plate was taken out to determine the absorbance value (OD value) of each well at the wavelength of 450 nm. The cell viability in each experimental group was calculated. The following formula was used: the relative cell viability (%) = […] x 100 %.

non-senescent HEF cells = assay: Cell killing activity assay (CCK-8), Example 7; format: cell-based, human; details: 25 µM
Description: as §3, §4, §5

non-senescent A549 cells = assay: Cell killing activity assay (CCK-8), Example 7; format: cell-based, human; details: 25 µM
Description: as §3, §4, §5

senescent A549 cells = assay: Cell killing activity assay (CCK-8), Example 7; format: cell-based, human; details: three days; for selective killing of the senescent cells: A549-induced senescence cell model, up to 25 µM
Description: as §3, §4, §5

[5] = lung HE, number of animals of 6, A13bGa1 5 mg/kg
[6] = number of animals of 6, A13bGa1 5 mg/kg

Cc1c(-c2ccc(N3CCc4cccc(C(=O)Nc5nc6ccccc6s5)c4C3)nc2C(=O)O)cnn1CC12CC3CC(CC(C3)C1)C2 [A13, 3-[1-(adamantan-1-ylmethyl)-5-methylpyrazol-4-yl]-6-{8-[(1,3-benzothiazol-2-yl)carbamoyl]-3,4-dihydro-1H-isoquinolin-2-yl}pyridine-2-carboxylic acid]
toxic effects on the platelets (platelets; 3 consecutive days per week for 3 weeks, 2 mg/kg): very serious toxic effects on the platelets
toxic effects on the platelets (platelets; 3 consecutive days per week for 3 weeks, 2, 5 and 20 mg/kg): strong destructive effects on the platelets
pathological manifestations of the pulmonary fibrosis (Masson staining) ([1]; A13bGa1 5 mg/kg i.p.): not improved
lung index ([1]; A13bGa1 5 mg/kg i.p., 3 consecutive days per week for 4 weeks): no improvement
inflammation and consolidation of the mouse lungs (pathological sections) ([1]; A13bGa1 5 mg/kg i.p., HE staining): no improvement was observed
Bleeding, alveolar/interstitial: mild (++) [1, 5]: 2
Bleeding, alveolar/interstitial: moderate (+++) [1, 5]: 0
Bleeding, alveolar/interstitial: negative (-) [1, 5]: 2
Bleeding, alveolar/interstitial: slight (+) [1, 5]: 2
Exudative oedema, alveolar: mild (++) [1, 5]: 1
Exudative oedema, alveolar: moderate (+++) [1, 5]: 1
Exudative oedema, alveolar: negative (-) [1, 5]: 0
Exudative oedema, alveolar: severe (++++) [1, 5]: 3
Exudative oedema, alveolar: slight (+) [1, 5]: 1
The infiltration of the inflammatory cells: mild (++) [1, 5]: 2
The infiltration of the inflammatory cells: moderate (+++) [1, 5]: 1
The infiltration of the inflammatory cells: negative (-) [1, 5]: 1
The infiltration of the inflammatory cells: slight (+) [1, 5]: 2
Thickening and consolidation of the pulmonary septum: mild (++) [1, 5]: 2
Thickening and consolidation of the pulmonary septum: moderate (+++) [1, 5]: 1
Thickening and consolidation of the pulmonary septum: negative (-) [1, 5]: 0
Thickening and consolidation of the pulmonary septum: severe (++++) [1, 5]: 2
Thickening and consolidation of the pulmonary septum: slight (+) [1, 5]: 1
degree of fibrosis in the lungs using Masson staining: Moderately strong positive (+++) [1, 6]: 1
degree of fibrosis in the lungs using Masson staining: extremely strong positive (++++) [1, 6]: 2
degree of fibrosis in the lungs using Masson staining: moderately positive (++) [1, 6]: 1
degree of fibrosis in the lungs using Masson staining: not positive (-) [1, 6]: 0
degree of fibrosis in the lungs using Masson staining: weakly positive (+) [1, 6]: 2
killing activity on the senescent cells compared with ABT-263 [2]: higher than that of the classical small molecule inhibitor ABT-263
senescent cell killing activity and selectivity in vitro (screening) [2]: good senescent cell killing activity and selectivity in vitro
mice depilated, dispirited and in poor state ([3]; 5 mg/kg i.p.): 2/4
mice depilated, dispirited and in poor state ([3]; 20 mg/kg i.p.): 2/4
killing activity on the senescent cells compared with ABT-263 [4]: higher than that of the classical small molecule inhibitor ABT-263

CN(C)CC#Cc1ccc(OCCCc2sc(N3CCc4cccc(C(=O)Nc5nc6ccccc6s5)c4C3)nc2C(=O)O)c(F)c1 [A1155463]
killing activity on the senescent cells compared with ABT-263 [2]: higher than that of the classical small molecule inhibitor ABT-263
senescent cell killing activity and selectivity in vitro (screening) [2]: good senescent cell killing activity and selectivity in vitro
killing activity on the senescent cells compared with ABT-263 [4]: higher than that of the classical small molecule inhibitor ABT-263

Cc1sc2c(c1C)C(c1ccc(Cl)cc1)=N[C@@H](CC(=O)Nc1ccc(OCCOCCOCCOCCNc3cccc4c3C(=O)N(C3CCC(=O)NC3=O)C4=O)cc1)c1nnc(C)n1-2 (stereo partly drawn) [ARV825]
senescent cell killing activity and selectivity in vitro (screening) [2]: better in vitro killing activity

Cc1ncsc1-c1ccc(CNC(=O)[C@@H]2C[C@@H](O)CN2C(=O)[C@@H](NC(=O)COCCOCCOCCNC(=O)C[C@@H]2N=C(c3ccc(Cl)cc3)c3c(sc(C)c3C)-n3c(C)nnc32)C(C)(C)C)cc1 [MZ1]
senescent cell killing activity and selectivity in vitro (screening) [2]: better in vitro killing activity

CC(=O)OC[C@H]1O[C@@H](Oc2ccc(C(Cc3cn(CCCN4CCOCC4)nn3)OC(=O)c3nc(N4CCc5cccc(C(=O)Nc6nc7ccccc7s6)c5C4)ccc3-c3cnn(CC45CC6CC(CC(C6)C4)C5)c3C)cc2[N+](=O)[O-])[C@H](OC(C)=O)[C@@H](OC(C)=O)[C@H]1OC(C)=O (stereo partly drawn) [d-11]
selective killing of the senescent cells (senescent HEF cells): selective killing of the senescent cells
killing of the non-senescent cells at the highest concentration (non-senescent HEF cells): none of the three molecules killed the non-senescent cells
killing of the non-senescent cells at the highest concentration (non-senescent A549 cells): none of the three molecules killed the non-senescent cells
selective killing of the senescent cells (senescent A549 cells): selective killing of the senescent cells

Cc1c(-c2ccc(N3CCc4cccc(C(=O)Nc5nc6ccccc6s5)c4C3)nc2C(=O)OC(Cc2cn(CCCN3CCOCC3)nn2)c2ccc(O[C@@H]3O[C@H](CO)[C@H](O)[C@H](O)[C@H]3O)c([N+](=O)[O-])c2)cnn1CC12CC3CC(CC(C3)C1)C2 (stereo partly drawn) [d-12]
selective killing of the senescent cells (senescent HEF cells): selective killing of the senescent cells
killing of the non-senescent cells at the highest concentration (non-senescent HEF cells): none of the three molecules killed the non-senescent cells
killing of the non-senescent cells at the highest concentration (non-senescent A549 cells): none of the three molecules killed the non-senescent cells
selective killing of the senescent cells (senescent A549 cells): selective killing of the senescent cells
IC50 (senescent A549 cells; Cisplatin-induced senescent A549 cells, CCK-8): ~6.9 µM

Cc1sc2c(c1C)C(c1ccc(Cl)cc1)=N[C@@H](CC(=O)NCCCCCCCCNC(=O)COc1cccc3c1C(=O)N(C1CCC(=O)NC1=O)C3=O)c1nnc(C)n1-2 (stereo partly drawn) [dBET6]
senescent cell killing activity and selectivity in vitro (screening) [2]: better in vitro killing activity
